We go through seven compounds from ChEMBL document CHEMBL5154696, “Efficient targeted oncogenic KRASG12C degradation via first reversible-covalent PROTAC” (Eur J Med Chem, 2022).

For test [1], the system named is GTPase KRas (Homo sapiens), P01116 [G12C]. Put plainly: Reversible covalent binding affinity to KRAS G12C mutant (unknown origin) incubated for 2 hrs and measured by MALDI-TOF-MS analysis.
In the next test the target is GTPase KRas (Homo sapiens, UniProt P01116, G12C). Put plainly: Inhibition of KRAS G12C mutant (unknown origin) assessed as inhibition of SOS1-catalyzed nucleotide exchange measured by HTRF assay. (TR-FRET usually uses a lanthanide donor and a delayed reading to cut background.)
In another test the test system is NCI-H358. Put plainly: Antiproliferative activity against human NCI-H358 cells harboring KRAS G12C mutant measured after 72 hrs by CCK-8 assay. Format: functional, cell-based. Conditions: NCI-H358, 72 h. Background: Tetrazolium assays rely on reduction of a dye to a coloured formazan, in cell work by metabolically active cells.
In a further test the test system is NCI-H23. Put plainly: Antiproliferative activity against human NCI-H23 cells harboring KRAS G12C mutant measured after 72 hrs by CCK-8 assay. Format: functional, cell-based. Conditions: NCI-H23, 72 h.
For the next test, the system named is A549. Put plainly: Antiproliferative activity against human A549 cells harboring KRAS G12S mutant measured after 72 hrs by CCK-8 assay. Format: functional, cell-based. The note with it: A549, 72 h.
In test [2] the target is T1, von Hippel-Lindau disease tumor suppressor/GTPase KRas (Homo sapiens, UniProt P01116+P40337, G12C). Put plainly: Protac activity at VHL/KRAS G12C mutant in human NCI-H23 cells assessed as induction of KRAS G12C mutant degradation by measuring downregulation of phospho-ERK protein level measured after 24 hrs by Western blot analysis. The class given is cell-based.
For test [3], the system named is von Hippel-Lindau disease tumor suppressor/GTPase KRas (Homo sapiens), P01116+P40337 [G12C]. Put plainly: Protac activity at VHL/KRAS G12C mutant in human NCI-H23 cells assessed as induction of KRAS G12C mutant degradation by measuring downregulation of phospho-ERK protein level at 3 uM measured after 24 hrs by Western blot analysis. The class given is cell-based. On the technique in general: In western blotting, separated proteins are transferred to a membrane and probed.

The target in test [4] is T1, von Hippel-Lindau disease tumor suppressor/GTPase KRas. Put plainly: Protac activity at VHL/KRAS G12C mutant in human NCI-H23 cells assessed as induction of KRAS G12C mutant degradation by measuring downregulation of KRAS G12C protein level measured after 24 hrs by Western blot analysis. The class given is cell-based.
Test [5] has as its system von Hippel-Lindau disease tumor suppressor/GTPase KRas (Homo sapiens), P01116+P40337 [G12C]. Put plainly: Protac activity at VHL/KRAS G12C mutant in human NCI-H23 cells assessed as induction of KRAS G12C mutant degradation by measuring downregulation of KRAS G12C protein level at 3 uM measured after 24 hrs by Western blot analysis. Format: cell-based.
The test system is the same in test [6]. Put plainly: Protac activity at VHL/KRAS G12C mutant in human NCI-H358 cells assessed as induction of KRAS G12C mutant degradation by measuring downregulation of KRAS G12C protein level at 3 uM measured after 24 hrs by Western blot analysis. Format: cell-based.
Test [7] addresses T1, von Hippel-Lindau disease tumor suppressor/GTPase KRas. Put plainly: Protac activity at VHL/KRAS G12C mutant in human NCI-H358 cells assessed as induction of KRAS G12C mutant degradation by measuring downregulation of phospho-ERK protein level measured after 24 hrs by Western blot analysis. The class given is cell-based.
Test [8] deals with von Hippel-Lindau disease tumor suppressor/GTPase KRas (Homo sapiens), P01116+P40337 [G12C]. Put plainly: Protac activity at VHL/KRAS G12C mutant in human NCI-H358 cells assessed as induction of KRAS G12C mutant degradation by measuring downregulation of KRAS G12C protein level at 3 uM in presence of cycloheximide measured after 24 hrs by Western blot analysis. The class given is cell-based.

The target of test [9] is T1, von Hippel-Lindau disease tumor suppressor/GTPase KRas. Put plainly: Protac activity at VHL/KRAS G12C mutant in human NCI-H358 cells assessed as induction of KRAS G12C mutant degradation by measuring downregulation of KRAS G12C protein level measured after 24 hrs by Western blot analysis. The class given is cell-based.
Test [10] has as its system von Hippel-Lindau disease tumor suppressor/GTPase KRas (Homo sapiens), P01116+P40337 [G12C]. Put plainly: Protac activity at VHL/KRAS G12C mutant in human NCI-H358 cells assessed as induction of KRAS G12C mutant degradation by measuring downregulation of phospho-ERK protein level at 3 uM measured after 24 hrs by Western blot analysis. The class given is cell-based.

Each structure is given as a SMILES string. The source made the active and inactive calls. The rule behind the calls is not given here.

Chain of GTPase KRas (P01116 whole entry G12C): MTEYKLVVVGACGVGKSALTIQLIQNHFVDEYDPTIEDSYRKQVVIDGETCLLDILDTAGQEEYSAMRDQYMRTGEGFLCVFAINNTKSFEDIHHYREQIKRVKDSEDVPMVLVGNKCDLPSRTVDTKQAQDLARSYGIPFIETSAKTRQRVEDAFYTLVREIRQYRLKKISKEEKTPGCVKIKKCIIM
T1 sequence (P01116 whole entry G12C, stated change not applied): as the sequence (P01116 whole entry G12C) above
T1 sequence (P40337 whole entry, stated change not applied): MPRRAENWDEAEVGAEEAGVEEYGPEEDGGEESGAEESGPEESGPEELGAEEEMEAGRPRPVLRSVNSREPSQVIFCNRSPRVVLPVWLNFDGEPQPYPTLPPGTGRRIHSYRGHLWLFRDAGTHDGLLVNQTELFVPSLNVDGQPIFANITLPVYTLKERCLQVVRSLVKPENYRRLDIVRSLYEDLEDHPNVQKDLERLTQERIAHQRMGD
Chain of GTPase KRas (Homo sapiens), P01116 [G12C] (P01116 whole entry G12C): as the sequence (P01116 whole entry G12C) above

For orientation: IC50 means the point on the concentration scale where inhibition reaches its midpoint. For `CN1CCC[C@H]1COc1nc2c(c(N3CCN(C(=O)C(C#N)=CC4CC4)[C@@H](CC#N)C3)n1)CCN(c1cccc3cccc(Cl)c13)C2`, the outcome in test [1] was Active. The concentration for half-maximal inhibition (IC50) stood at 0.0254 µM at GTPase KRas, 4.7 µM in the test on NCI-H358, 5.25 µM in the test with NCI-H23 and 13.3 µM in the test with A549.
On to `CCC=C(C#N)C(=O)N1CCN(c2nc(OC[C@@H]3CCCN3C)nc3c2CCN(c2cccc4cccc(Cl)c24)C3)C[C@@H]1CC#N`, for which the IC50 on GTPase KRas was determined as 0.271 µM; in the test on NCI-H358, 13.4 µM; with NCI-H23, 7.4 µM; in the test on A549, 25.3 µM.
`CC(C)C=C(C#N)C(=O)N1CCN(c2nc(OC[C@@H]3CCCN3C)nc3c2CCN(c2cccc4cccc(Cl)c24)C3)C[C@@H]1CC#N`: the concentration for half-maximal inhibition (IC50) turned out to be 0.284 µM at GTPase KRas, 13.7 µM with NCI-H358, 3.15 µM in the test on NCI-H23 and 50 µM in the test on A549.
Broadly, the DC50 is the concentration giving 50% degradation. In the case of `Cc1ncsc1-c1ccc(CNC(=O)[C@@H]2C[C@@H](O)CN2C(=O)[C@@H](NC(=O)CCOCCCN2CCC[C@H]2COc2nc3c(c(N4CCN(C(=O)/C(C#N)=C/C5CC5)[C@@H](CC#N)C4)n2)CCN(c2cccc4cccc(Cl)c24)C3)C(C)(C)C)cc1`, the half-maximal degradation concentration (DC50) came out at 1.44 µM in test [2], 4.53 µM in test [4], 1.68 µM in test [7] and 3.61 µM in [9]. Moreover, the outcome in [3], in [5], in [6], in test [8] and in test [10] was Active. Moreover, the IC50 with NCI-H358 stood at 0.154 µM; with NCI-H23, 0.244 µM.
Take `CC=C(C#N)C(=O)N1CCN(c2nc(OC[C@@H]3CCCN3C)nc3c2CCN(c2cccc4cccc(Cl)c24)C3)C[C@@H]1CC#N`: the half-inhibitory concentration (IC50) at GTPase KRas was determined as 0.0963 µM; with NCI-H358, 5.13 µM; in the test on NCI-H23 it was 9.55 µM; with A549, 8.2 µM.
Regarding `C=CC(=O)N1CCN(c2nc(=O)n(-c3c(C)ccnc3C(C)C)c3nc(-c4c(O)cccc4F)c(F)cc23)[C@@H](C)C1` [SOTORASIB], the IC50 amounted to 0.0084 µM in the test on NCI-H358, 0.112 µM with NCI-H23 and 50 µM in the test on A549.
Take `CN1CCC[C@H]1COc1nc2c(c(N3CCN(C(=O)C(C#N)=CC(C)(C)C)[C@@H](CC#N)C3)n1)CCN(c1cccc3cccc(Cl)c13)C2`: the 50% inhibitory concentration (IC50) is 0.64 µM at GTPase KRas, 0.796 µM in the test on NCI-H358, 6.33 µM with NCI-H23 and 16.1 µM in the test with A549.
